Calls of active or inactive are those of the source. No cut-off for these calls is given here. Peptide text beside a SMILES is read from it. * marks the point of attachment. βNA = c1ccc2cc(N*)ccc2c1
Legend:
Escherichia coli [1] = assay: Potentiation of erythromycin-induced antibacterial activity against wild type Escherichia coli BW25113 assessed as erythromycin MIC at 512 ug/ml incubated for 18 hrs under aerobic condition by checkerboard titration assay (reference value: 128 ug/ml); format: functional; conditions: dose 512 µg/ml
Escherichia coli [2] = assay: Potentiation of erythromycin-induced antibacterial activity against AcrB deficient Escherichia coli BW25113 assessed as erythromycin MIC at 512 ug/ml incubated for 18 hrs under aerobic condition by checkerboard titration assay (reference value: 32 ug/ml); format: functional; conditions: dose 512 µg/ml
Escherichia coli [3] = assay: Potentiation of rifampicin-induced antibacterial activity against wild type Escherichia coli BW25113 assessed as rifampicin MIC at 256 ug/ml incubated for 18 hrs under aerobic condition by checkerboard titration assay (reference value: 16 ug/ml); format: functional; conditions: dose 256 µg/ml
Escherichia coli [4] = assay: Potentiation of chloramphenicol-induced antibacterial activity against wild type Escherichia coli BW25113 assessed as chloramphenicol MIC at 256 ug/ml incubated for 18 hrs under aerobic condition by checkerboard titration assay (reference value: 16 ug/ml); format: functional; conditions: dose 256 µg/ml
Escherichia coli [5] = assay: Potentiation of TPP-induced antibacterial activity against wild type Escherichia coli BW25113 assessed as TPP MIC at 512 ug/ml incubated for 18 hrs under aerobic condition by checkerboard titration assay (reference value: 1024 ug/ml); format: functional; conditions: dose 512 µg/ml
Escherichia coli [6] = assay: Potentiation of chloramphenicol-induced antibacterial activity against wild type Escherichia coli BW25113 assessed as fold reduction in chloramphenicol MIC at 512 ug/ml incubated for 18 hrs under aerobic condition by checkerboard titration assay relative to chloramphenicol MIC alone; format: functional; conditions: dose 512 µg/ml
Escherichia coli [7] = assay: Potentiation of chloramphenicol-induced antibacterial activity against wild type Escherichia coli BW25113 assessed as chloramphenicol MIC at 512 ug/ml incubated for 18 hrs under aerobic condition by checkerboard titration assay (reference value: 16 ug/ml); format: functional; conditions: dose 512 µg/ml
Escherichia coli [8] = assay: Potentiation of erythromycin-induced antibacterial activity against wild type Escherichia coli BW25113 assessed as erythromycin MIC at 256 ug/ml incubated for 18 hrs under aerobic condition by checkerboard titration assay (reference value: 128 ug/ml); format: functional; conditions: dose 256 µg/ml
Escherichia coli [9] = assay: Potentiation of chloramphenicol-induced antibacterial activity against AcrB deficient Escherichia coli BW25113 assessed as chloramphenicol MIC at 512 ug/ml incubated for 18 hrs under aerobic condition by checkerboard titration assay (reference value: 2 ug/ml); format: functional; conditions: dose 512 µg/ml
Escherichia coli [10] = assay: Potentiation of TPP-induced antibacterial activity against wild type Escherichia coli BW25113 assessed as TPP MIC at 256 ug/ml incubated for 18 hrs under aerobic condition by checkerboard titration assay (reference value: 1024 ug/ml); format: functional; conditions: dose 256 µg/ml
Escherichia coli [11] = assay: Potentiation of erythromycin-induced antibacterial activity against wild type Escherichia coli BW25113 assessed as erythromycin MIC at 128 ug/ml incubated for 18 hrs under aerobic condition by checkerboard titration assay (reference value: 128 ug/ml); format: functional; conditions: dose 128 µg/ml
Escherichia coli [12] = assay: Potentiation of chloramphenicol-induced antibacterial activity against AcrB deficient Escherichia coli BW25113 assessed as chloramphenicol MIC at 256 ug/ml incubated for 18 hrs under aerobic condition by checkerboard titration assay (reference value: 2 ug/ml); format: functional; conditions: dose 256 µg/ml
Cell membrane [13] = assay: Induction of outer membrane permeabilization in wild type Escherichia coli BW25113 assessed as increase in nitrocefin hydrolysis at 512 ug/ml measured for 30 mins in presence of CCCP by spectrophotometry analysis; format: subcellular; conditions: dose 512.0 µg/ml
Escherichia coli [14] = assay: Potentiation of TPP-induced antibacterial activity against wild type Escherichia coli BW25113 assessed as TPP MIC at 128 ug/ml incubated for 18 hrs under aerobic condition by checkerboard titration assay (reference value: 1024 ug/ml); format: functional; conditions: dose 128 µg/ml
Escherichia coli [15] = assay: Antibacterial activity against wild type Escherichia coli BW25113 assessed as inhibition of bacterial growth at 256 ug/ml after 18 hrs by microtitre broth dilution assay; format: functional, organism-based; conditions: dose 256.0 µg/ml
Escherichia coli [16] = assay: Potentiation of erythromycin-induced antibacterial activity against AcrB deficient Escherichia coli BW25113 assessed as erythromycin MIC at 256 ug/ml incubated for 18 hrs under aerobic condition by checkerboard titration assay (reference value: 32 ug/ml); format: functional; conditions: dose 256 µg/ml
Escherichia coli [17] = assay: Potentiation of erythromycin-induced antibacterial activity against wild type Escherichia coli BW25113 assessed as fold reduction in erythromycin MIC at 128 ug/ml incubated for 18 hrs under aerobic condition by checkerboard titration assay relative to erythromycin MIC alone; format: functional; conditions: dose 128 µg/ml
Escherichia coli [18] = assay: Potentiation of TPP-induced antibacterial activity against AcrB deficient Escherichia coli BW25113 assessed as TPP MIC at 256 ug/ml incubated for 18 hrs under aerobic condition by checkerboard titration assay (reference value: 256 ug/ml); format: functional; conditions: dose 256 µg/ml
Escherichia coli [19] = assay: Antibacterial activity against AcrB deficient Escherichia coli BW25113 assessed as inhibition of bacterial growth at 256 ug/ml after 18 hrs by microtitre broth dilution assay; format: functional, organism-based; conditions: dose 256.0 µg/ml
Escherichia coli [20] = assay: Potentiation of TPP-induced antibacterial activity against AcrB deficient Escherichia coli BW25113 assessed as TPP MIC at 128 ug/ml incubated for 18 hrs under aerobic condition by checkerboard titration assay (reference value: 256 ug/ml); format: functional; conditions: dose 128 µg/ml
Escherichia coli [21] = assay: Potentiation of erythromycin-induced antibacterial activity against Escherichia coli BW25113 assessed as erythromycin MIC at 32 ug/ml incubated for 18 hrs under aerobic condition in presence of EDTA by checkerboard titration assay; format: functional, organism-based; conditions: dose 32.0 µg/ml
Escherichia coli [22] = assay: Potentiation of erythromycin-induced antibacterial activity against AcrB deficient Escherichia coli BW25113 assessed as erythromycin MIC at 128 ug/ml incubated for 18 hrs under aerobic condition by checkerboard titration assay (reference value: 32 ug/ml); format: functional; conditions: dose 128 µg/ml
Escherichia coli [23] = assay: Potentiation of rifampicin-induced antibacterial activity against wild type Escherichia coli BW25113 assessed as rifampicin MIC at 128 ug/ml incubated for 18 hrs under aerobic condition by checkerboard titration assay (reference value: 16 ug/ml); format: functional; conditions: dose 128 µg/ml
Escherichia coli [24] = assay: Potentiation of chloramphenicol-induced antibacterial activity against AcrB deficient Escherichia coli BW25113 assessed as chloramphenicol MIC at 128 ug/ml incubated for 18 hrs under aerobic condition by checkerboard titration assay (reference value: 2 ug/ml); format: functional; conditions: dose 128 µg/ml
Escherichia coli [25] = assay: Potency index, ratio of A3 MIC to compound MIC for potentiation of erythromycin-induced antibacterial activity against Escherichia coli BW25113; format: functional
Cell membrane [26] = assay: Disruption of inner membrane potential in wild type Escherichia coli BW25113 at 512 ug/ml preincubated for 10 mins followed by glucose stimulation and CCCP addition by DiOC2 probe based fluorimetric analysis; format: subcellular; conditions: dose 512.0 µg/ml
Escherichia coli [27] = assay: Potentiation of chloramphenicol-induced antibacterial activity against wild type Escherichia coli BW25113 assessed as chloramphenicol MIC at 128 ug/ml incubated for 18 hrs under aerobic condition by checkerboard titration assay (reference value: 16 ug/ml); format: functional; conditions: dose 128 µg/ml
Escherichia coli [28] = assay: (§1) Antibacterial activity against Wild type Escherichia coli BW25113 assessed as inhibition of AcrB efflux pump by mesuring the glucose-induced nile red efflux at 200 uM preincubated with CCCP for 15 mins followed by compound addition after 15 mins nile red added and incubated for 3 hrs in shaker by fluorimetric analysis; format: functional, organism-based; conditions: time 195.0 min
Escherichia coli [29] = assay: Potentiation of erythromycin-induced antibacterial activity against AcrB deficient Escherichia coli BW25113 assessed as erythromycin MIC at 200 ug/ml incubated for 18 hrs under aerobic condition by checkerboard titration assay (reference value: 32 ug/ml); format: functional; conditions: dose 200 µg/ml
Escherichia coli [30] = assay: Potentiation of rifampicin-induced antibacterial activity against wild type Escherichia coli BW25113 assessed as rifampicin MIC at 200 ug/ml incubated for 18 hrs under aerobic condition by checkerboard titration assay (reference value: 16 ug/ml); format: functional; conditions: dose 200 µg/ml
Escherichia coli [31] = assay: Potentiation of chloramphenicol-induced antibacterial activity against wild type Escherichia coli BW25113 assessed as chloramphenicol MIC at 200 ug/ml incubated for 18 hrs under aerobic condition by checkerboard titration assay (reference value: 16 ug/ml); format: functional; conditions: dose 200 µg/ml
Escherichia coli [32] = assay: Potentiation of erythromycin-induced antibacterial activity against wild type Escherichia coli BW25113 assessed as erythromycin MIC at 200 ug/ml incubated for 18 hrs under aerobic condition by checkerboard titration assay (reference value: 128 ug/ml); format: functional; conditions: dose 200 µg/ml
Escherichia coli [33] = assay: Potentiation of TPP-induced antibacterial activity against AcrB deficient Escherichia coli BW25113 assessed as TPP MIC at 200 ug/ml incubated for 18 hrs under aerobic condition by checkerboard titration assay (reference value: 256 ug/ml); format: functional; conditions: dose 200 µg/ml
Escherichia coli [34] = assay: Potentiation of chloramphenicol-induced antibacterial activity against AcrB deficient Escherichia coli BW25113 assessed as chloramphenicol MIC at 200 ug/ml incubated for 18 hrs under aerobic condition by checkerboard titration assay (reference value: 2 ug/ml); format: functional; conditions: dose 200 µg/ml
Escherichia coli [35] = assay: Potentiation of TPP-induced antibacterial activity against wild type Escherichia coli BW25113 assessed as TPP MIC at 200 ug/ml incubated for 18 hrs under aerobic condition by checkerboard titration assay (reference value: 1024 ug/ml); format: functional; conditions: dose 200 µg/ml
Escherichia coli [36] = assay: Potentiation of erythromycin-induced antibacterial activity against AcrB deficient Escherichia coli BW25113 assessed as erythromycin MIC at 32 ug/ml incubated for 18 hrs under aerobic condition by checkerboard titration assay (reference value: 32 ug/ml); format: functional; conditions: dose 32 µg/ml
Escherichia coli [37] = assay: Potentiation of TPP-induced antibacterial activity against AcrB deficient Escherichia coli BW25113 assessed as TPP MIC at 32 ug/ml incubated for 18 hrs under aerobic condition by checkerboard titration assay (reference value: 256 ug/ml); format: functional; conditions: dose 32 µg/ml
Escherichia coli [38] = assay: Potentiation of chloramphenicol-induced antibacterial activity against AcrB deficient Escherichia coli BW25113 assessed as chloramphenicol MIC at 32 ug/ml incubated for 18 hrs under aerobic condition by checkerboard titration assay (reference value: 2 ug/ml); format: functional; conditions: dose 32 µg/ml
Escherichia coli [39] = assay: as §1, with “500” for “200”; format: functional, organism-based; conditions: time 195.0 min

SMILES: O=C(Nc1ccccc1C(F)(F)F)c1cc(OCc2ccccc2)c2ccccc2c1
- MIC (Escherichia coli [1]): 128 µg/mL
- MIC (Escherichia coli [2]): 16 µg/mL
- MIC (Escherichia coli [3]): 16 µg/mL
- MIC (Escherichia coli [4]): 8 µg/mL
- MIC (Escherichia coli [5]): 1020 µg/mL
- fold change (FC) (Escherichia coli [6]): 8
- MIC (Escherichia coli [7]): 2 µg/mL
- MIC (Escherichia coli [8]): 128 µg/mL
- MIC (Escherichia coli [9]): 0.5 µg/mL
- MIC (Escherichia coli [10]): 1020 µg/mL

SMILES: CC(C)NCCOc1cc(C(N)=O)cc2ccccc12
- MIC (Escherichia coli [11]): 16 µg/mL
- MIC (Escherichia coli [12]): 2 µg/mL
- Activity (Cell membrane [13]): inactive
- MIC (Escherichia coli [14]): 1020 µg/mL
- Activity (Escherichia coli [15]): inactive
- MIC (Escherichia coli [16]): 32 µg/mL
- MIC (Escherichia coli [3]): 16 µg/mL
- fold change (FC) (Escherichia coli [17]): 8
- MIC (Escherichia coli [4]): 16 µg/mL
- MIC (Escherichia coli [18]): 256 µg/mL
- Activity (Escherichia coli [19]): Active
- MIC (Escherichia coli [20]): 256 µg/mL
- Activity (Escherichia coli [21]): Active
- MIC (Escherichia coli [22]): 32 µg/mL
- MIC (Escherichia coli [23]): 16 µg/mL
- MIC (Escherichia coli [24]): 2 µg/mL
- Ratio (Escherichia coli [25]): 16
- Activity (Cell membrane [26]): inactive
- MIC (Escherichia coli [8]): 16 µg/mL
- MIC (Escherichia coli [27]): 16 µg/mL
- MIC (Escherichia coli [10]): 1020 µg/mL
- Activity (Escherichia coli [28]): Active

SMILES: N=C(N)NCCC[C@H](NC(=O)[C@@H](N)Cc1ccccc1)C(=O)Nc1ccc2ccccc2c1 [PABETAN] (H-Phe-Arg-βNA)
- MIC (Escherichia coli [29]): 16 µg/mL
- MIC (Escherichia coli [30]): 2 µg/mL
- MIC (Escherichia coli [31]): 2 µg/mL
- MIC (Escherichia coli [32]): 16 µg/mL
- MIC (Escherichia coli [33]): 256 µg/mL
- MIC (Escherichia coli [34]): 2 µg/mL
- MIC (Escherichia coli [35]): 256 µg/mL

SMILES: CC(C)CCOc1cc(C(=O)NCCc2ccccc2)cc2ccccc12
- MIC (Escherichia coli [11]): 64 µg/mL
- Activity (Cell membrane [13]): inactive
- MIC (Escherichia coli [14]): 1020 µg/mL
- MIC (Escherichia coli [36]): 2 µg/mL
- MIC (Escherichia coli [3]): 16 µg/mL
- MIC (Escherichia coli [4]): 4 µg/mL
- MIC (Escherichia coli [37]): 32 µg/mL
- MIC (Escherichia coli [38]): 2 µg/mL
- MIC (Escherichia coli [23]): 16 µg/mL
- Activity (Cell membrane [26]): inactive
- MIC (Escherichia coli [8]): 32 µg/mL
- MIC (Escherichia coli [27]): 8 µg/mL
- MIC (Escherichia coli [10]): 1020 µg/mL
- Activity (Escherichia coli [39]): inactive

Reference: ChEMBL document CHEMBL4715814, “Design, synthesis and biological activity evaluation of novel 4-subtituted 2-naphthamide derivatives as AcrB inhibitors” (2018)
